Reference: patent publication US20120214862A1, “MODULATION OF FACTOR 7 EXPRESSION” (ISIS Pharmaceuticals, Inc., priority 2009, published 2012)
In the oligonucleotide strings, read from the 5' end, every base follows the letter of its sugar. An asterisk marks phosphorothioate; unmarked linkages are phosphodiester. Other units and linkages are bracketed, terminal groups are in braces. A string of capitals states the bases alone. e = 2'-O-(2-methoxyethyl) (MOE); [5mC] = 5-methylcytosine; d = 2'-deoxy (DNA)

Legend:
Type in all cases: cell-based
human Factor 7 mRNA [1] = test: Dose-dependent antisense inhibition of human Factor 7 in HepB3 cells, transfection with electroporation
Description: (§1) The gapmers were also transfected via electroporation and their dose-dependent inhibition of human Factor 7 mRNA was measured. Cells were plated at a density of 20,000 cells per well and transfected via electroporation with 3.125 μM, 6.25 μM, 12.5 μM, 25 μM, 50 μM, and 100 μM concentrations of antisense oligonucleotide, as specified in Table 15. After a treatment period of approximately 16 hours, RNA was isolated from the cells and Factor 7 mRNA levels were measured by quantitative real-time PCR. Human Factor 7 primer probe set RTS 2927 was used to measure mRNA levels. Factor 7 mRNA levels were adjusted according to total RNA content, as measured by RIBOGREEN®. Results are presented as percent inhibition of Factor 7, relative to untreated control cells.
as §1, with “Cells were” for “The gapmers were also transfected via electroporation and their dose-dependent inhibition of human Factor 7 mRNA was measured. Cells were”, “in Table 16. After a” for “in Table 15. After a”, “cells and human Factor 7” for “cells and Factor 7”

human Factor 7 mRNA [2] = test: Dose-dependent antisense inhibition of human Factor 7 in HepB3 cells, transfection with lipofectin; settings: lipofectin, HepB3 cells, 16 hours
Description: Cells were plated at a density of 4,000 cells per well and treated with lipofectin reagent with 3.125 nM, 6.25 nM, 12.5 nM, 25 nM, 50 nM, and 100 nM concentrations of antisense oligonucleotide, as indicated in Table 3. After a treatment period of approximately 16 hours, RNA was isolated from the cells and Factor 7 mRNA levels were measured by real-time RT-PCR, as described herein. Human Factor 7 primer probe set RTS 2927 (forward sequence: […], incorporated herein as SEQ ID NO: 164; reverse sequence: […], incorporated herein as SEQ ID NO: 165; probe sequence: TGGGTGGTCTCCGCGGCCX, incorporated herein as SEQ ID NO: 166) was used to measure mRNA levels. Factor 7 mRNA levels were adjusted according to total RNA content as measured by RIBOGREEN®. Results are presented as percent inhibition of Factor 7, relative to untreated control cells.
Cells were plated at a density of 4,000 cells per well and transfected using lipofectin reagent with 6.25 nM, 12.5 nM, 25.0 nM, 50.0 nM, and 100.0 nM concentrations of antisense oligonucleotide, as indicated in Table 7. After a treatment period of approximately 16 hours, RNA was isolated from the cells and Factor 7 mRNA levels were measured by real-time RT-PCR, as described herein. Human Factor 7 primer probe set RTS 2927 was used to measure mRNA levels. Factor 7 mRNA levels were adjusted according to total RNA content as measured by RIBOGREEN®. Results are presented as percent inhibition of Factor 7, relative to untreated control cells.
Cells were plated at a density of 4,000 cells per well and transfected using lipofectin reagent with 3.125 nM, 6.25 nM, 12.5 nM, 25 nM, 50 nM, and 100 nM concentrations of antisense oligonucleotide, as specified in Table 14. After a treatment period of approximately 16 hours, RNA was isolated from the cells and Factor 7 mRNA levels were measured by quantitative real-time PCR. Human Factor 7 primer probe set RTS 2927 was used to measure mRNA levels. Factor 7 mRNA levels were adjusted according to total RNA content, as measured by RIBOGREEN®. Results are presented as percent inhibition of Factor 7, relative to untreated control cells.

human Factor 7 mRNA [3] = test: Antisense inhibition of human Factor 7 mRNA in HepB3 cells, lipofectin, 50 nM, real-time RT-PCR; settings: HepB3 cells
Procedure, shortened: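 Readout is percent reduction of Factor 7 message compared with untreated cells, after correction for total RNA content quantified by RIBOGREEN®. Cultures were seeded at 4,000 cells per well and treated for about 24 hours before RNA extraction.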

human Factor 7 mRNA [4] = test: Inhibition of human Factor 7 mRNA by 2-10-2 MOE shortmers in HepB3 cells, electroporation, 1,000 nM; settings: electroporation, 1,000 nM oligonucleotide, approximately 24 hours, relative to untreated control cells
Procedure, shortened: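 14-mer 2-10-2 2′-MOE gapmers, full phosphorothioate, 5-methylcytidines, electroporated at 1,000 nM into HepB3 cells (20,000/well). After ~24 h, mRNA quantified by real-time RT-PCR, normalized to RIBOGREEN total RNA; percent inhibition relative to untreated cells.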

[5] = 3.125 μM, 16 hours (Example 7, Table 15)
[6] = 3.125 μM, 16 hours (Example 8, Table 16)
[7] = 6.25 μM, 16 hours (Example 7, Table 15)
[8] = 6.25 μM, 16 hours (Example 8, Table 16)
[9] = 12.5 μM, 16 hours (Example 7, Table 15)
[10] = 12.5 μM, 16 hours (Example 8, Table 16)
[11] = 25 μM, 16 hours (Example 7, Table 15)
[12] = 25 μM, 16 hours (Example 8, Table 16)
[13] = 50 μM, 16 hours (Example 7, Table 15)
[14] = 50 μM, 16 hours (Example 8, Table 16)
[15] = 100 μM, 16 hours (Example 7, Table 15)
[16] = 100 μM, 16 hours (Example 8, Table 16)
[17] = gapmers targeted to nucleobases 15188 to 15211 of SEQ ID NO: 1 (Table 13)

Substance | percent inhibition of Factor 7 mRNA, relative to untreated control cells (human Factor 7 mRNA [1]; [5]) | percent inhibition of Factor 7 mRNA, relative to untreated control cells (human Factor 7 mRNA [1]; [7]) | percent inhibition of Factor 7 mRNA, relative to untreated control cells (human Factor 7 mRNA [1]; [9]) | percent inhibition of Factor 7 mRNA, relative to untreated control cells (human Factor 7 mRNA [1]; [11]) | percent inhibition of Factor 7 mRNA, relative to untreated control cells (human Factor 7 mRNA [1]; [13]) | percent inhibition of Factor 7 mRNA, relative to untreated control cells (human Factor 7 mRNA [1]; [15]) | percent inhibition of Factor 7 mRNA, relative to untreated control cells (human Factor 7 mRNA [2]; 3.125 nM) | percent inhibition of Factor 7 mRNA, relative to untreated control cells (human Factor 7 mRNA [2]; 12.5 nM) | percent inhibition of Factor 7 mRNA, relative to untreated control cells (human Factor 7 mRNA [2]; 25 nM) | percent inhibition of Factor 7 mRNA, relative to untreated control cells (human Factor 7 mRNA [2]; 50 nM) | percent inhibition of Factor 7 mRNA, relative to untreated control cells (human Factor 7 mRNA [2]; 100 nM) | percent inhibition of Factor 7 mRNA, relative to untreated control cells (human Factor 7 mRNA [2]) | % inhibition of human Factor 7 mRNA (human Factor 7 mRNA [4]) | other results
422086 (antisense eT*eG*e[5mC]*eA*eT*dG*dG*dT*dG*dA*dT*dG*d[5mC]*dT*dT*e[5mC]*eT*eG*eA*eA) [compound 422086] | 20% | 34% | 44% | 63% | 75% | 84% | 8% | 46% | 65% | 83% | 90% | 26% |  | percent inhibition of Factor 7 mRNA, relative to untreated control cells (human Factor 7 mRNA [1]; [6]): 25%; percent inhibition of Factor 7 mRNA, relative to untreated control cells (human Factor 7 mRNA [1]; [8]): 48%; percent inhibition of Factor 7 mRNA, relative to untreated control cells (human Factor 7 mRNA [1]; [10]): 74%; percent inhibition of Factor 7 mRNA, relative to untreated control cells (human Factor 7 mRNA [1]; [12]): 82%; percent inhibition of Factor 7 mRNA, relative to untreated control cells (human Factor 7 mRNA [1]; [14]): 86%; percent inhibition of Factor 7 mRNA, relative to untreated control cells (human Factor 7 mRNA [1]; [16]): 90%; % Inhibition of human Factor 7 mRNA levels (human Factor 7 mRNA [3]; [17]): 81%
422087 (antisense e[5mC]*eA*eT*eG*e[5mC]*dA*dT*dG*dG*dT*dG*dA*dT*dG*d[5mC]*eT*eT*e[5mC]*eT*eG) [compound 422087] | 22% | 26% | 48% | 57% | 72% | 80% | 14% | 51% | 73% | 83% | 90% | 24% |  | percent inhibition of Factor 7 mRNA, relative to untreated control cells (human Factor 7 mRNA [1]; [6]): 19%; percent inhibition of Factor 7 mRNA, relative to untreated control cells (human Factor 7 mRNA [1]; [8]): 38%; percent inhibition of Factor 7 mRNA, relative to untreated control cells (human Factor 7 mRNA [1]; [10]): 66%; percent inhibition of Factor 7 mRNA, relative to untreated control cells (human Factor 7 mRNA [1]; [12]): 75%; percent inhibition of Factor 7 mRNA, relative to untreated control cells (human Factor 7 mRNA [1]; [14]): 80%; percent inhibition of Factor 7 mRNA, relative to untreated control cells (human Factor 7 mRNA [1]; [16]): 87%; % Inhibition of human Factor 7 mRNA levels (human Factor 7 mRNA [3]; [17]): 83%
422096 (antisense eA*eG*eA*e[5mC]*eA*dA*dT*dG*dG*dT*d[5mC]*dA*dG*dG*dG*e[5mC]*eT*eG*eG*eT) [compound 422096] | 26% | 30% | 46% | 50% | 62% | 85% | 17% | 43% | 60% | 68% | 82% | 23% |  | % Inhibition of human Factor 7 mRNA levels (human Factor 7 mRNA [3]; gapmers targeted to nucleobases 11830 to 11869 of SEQ ID NO: 1 (Table 9)): 76%
435835 (antisense eT*eT*dA*dT*dT*dT*dG*dG*dG*d[5mC]*dA*dT*eG*eG) [compound 435835] |  |  |  |  |  |  |  |  |  |  |  |  | 7% | 
435836 (antisense e[5mC]*eT*dA*dG*dG*dT*d[5mC]*dT*dG*d[5mC]*dA*dG*eG*eG) [compound 435836] |  |  |  |  |  |  |  |  |  |  |  |  | 41% | 
435837 (antisense e[5mC]*eT*d[5mC]*dG*d[5mC]*d[5mC]*dT*dG*dG*dA*dA*dG*eG*eA) [compound 435837] |  |  |  |  |  |  |  |  |  |  |  |  | 37% | 
435838 (antisense eT*e[5mC]*d[5mC]*dA*dT*dG*dG*dA*d[5mC]*dA*d[5mC]*dT*eA*eA) [compound 435838] |  |  |  |  |  |  |  |  |  |  |  |  | 29% | 
435839 (antisense eG*eG*dT*d[5mC]*dA*dG*d[5mC]*dT*dG*dG*dT*d[5mC]*eT*eG) [compound 435839] |  |  |  |  |  |  |  |  |  |  |  |  | 14% | 
435840 (antisense eG*eG*dG*d[5mC]*d[5mC]*d[5mC]*dG*d[5mC]*d[5mC]*dA*d[5mC]*dT*eG*eG) [compound 435840] |  |  |  |  |  |  |  |  |  |  |  |  | 0% | 
435841 (antisense e[5mC]*eT*d[5mC]*dG*dG*dA*d[5mC]*dA*dA*dA*dA*dG*eA*eG) [compound 435841] |  |  |  |  |  |  |  |  |  |  |  |  | 1% | 
